{"source": "patent US20050277142A1", "about": "“Recombinant cell line for the detection of dioxin-like compounds based on the expression of luciferase gene” (priority 2004, published 2005)"}
{"test_system": "dioxin-response elements (DREs)-luciferase in Hepa1c1c7-M4P2 cells", "assay": "luciferase light intensity bioassay in transfected cell line Hepa1c1c7-M4P2", "assay_type": "cell-based, mouse", "conditions": "100 pM 2,3,7,8-TCDD; 5, 10, 15 and 20 hours tested", "experimental": "(§1) The transfected cells (4×10^5 cells/well) were placed in a 24 well-culture plate. To each well was added 1 mL of culture medium (DMEM+10% FBS). Thereafter, the culture plate was placed in a constant-temperature incubator set at 37° C. and 5% CO2 for two hours to permit cell adhesion.\n(§2) The Dioxin (2,3,7,8-TCDD) stock solution with a concentration of 10 μg/mL was subjected to 10-fold serial dilution. 3.22 μl of each diluted solution was taken and added to each well of the culture plate, such that the final concentrations of dioxin in the experimental groups are 10 nM, 1 nM, 100 pM, […], 10 pM, 1 pM and 0.1 pM, respectively. Each experimental group was prepared in quadruplicate. The normal control group was not subjected to any treatment, whereas the solvent control group was treated using 3.22 μl of DMSO. […]\n(§3) 100 μl of the lysate obtained in each group was taken and added to each well of a non-transparent 96-well plate, followed by addition of 50 μl of luciferin (which is included in the Luciferase Assay System, (Cat#1500), Promega Cooperation). Finally, the plate was sent to a Beckman coulter DU640B spectrophotometer (set at PMT:1100; read length:0.5; and Gain:1˜100) for automatic detection of the light intensity within 20 seconds. The experimental results thus obtained were analyzed and plotted using statistical analysis, so as to determine whether the results have statistic significance. […]", "units": {"dioxin treatment time giving the most stable and the optimal light intensity result": "h"}}
{"compound": "Clc1cc2c(cc1Cl)Oc1cc(Cl)c(Cl)cc1O2", "note": "[2,3,7,8-TCDD, 2,3,7,8-tetrachloro-dibenzo-p-dioxin]", "dioxin treatment time giving the most stable and the optimal light intensity result": 15}
{"test_system": "dioxin-response elements (DREs)-luciferase in Hepa1c1c7-M4P2 cells", "assay": "luciferase light intensity bioassay in transfected cell line Hepa1c1c7-M4P2", "assay_type": "cell-based, mouse", "conditions": "15 hours treatment", "experimental": "as §1, §2, §3", "units": {"lowest limit of dioxin detection (obvious light intensity changes vs controls)": "pM"}}
{"compound": "Clc1cc2c(cc1Cl)Oc1cc(Cl)c(Cl)cc1O2", "note": "[2,3,7,8-TCDD, 2,3,7,8-tetrachloro-dibenzo-p-dioxin]", "lowest limit of dioxin detection (obvious light intensity changes vs controls)": 5}
{"test_system": "dioxin-response elements (DREs)-luciferase in Hepa1c1c7-MP cells", "assay": "luciferase light intensity bioassay in transfected cell line Hepa1c1c7-MP", "assay_type": "cell-based, mouse", "conditions": "100 pM 2,3,7,8-TCDD; 5, 10, 15 and 20 hours tested", "experimental": "as §1, §2, §3", "units": {"dioxin treatment time giving the most stable and the optimal light intensity result": "h"}}
{"compound": "Clc1cc2c(cc1Cl)Oc1cc(Cl)c(Cl)cc1O2", "note": "[2,3,7,8-TCDD, 2,3,7,8-tetrachloro-dibenzo-p-dioxin]", "dioxin treatment time giving the most stable and the optimal light intensity result": 20}
{"test_system": "dioxin-response elements (DREs)-luciferase in Hepa1c1c7-MP cells", "assay": "luciferase light intensity bioassay in transfected cell line Hepa1c1c7-MP", "assay_type": "cell-based, mouse", "conditions": "15 hours treatment", "experimental": "as §1, §2, §3", "units": {"lowest limit of dioxin detection (significant light intensity changes vs controls)": "pM"}}
{"compound": "Clc1cc2c(cc1Cl)Oc1cc(Cl)c(Cl)cc1O2", "note": "[2,3,7,8-TCDD, 2,3,7,8-tetrachloro-dibenzo-p-dioxin]", "lowest limit of dioxin detection (significant light intensity changes vs controls)": 5}
{"test_system": "not given", "assay": "not given", "conditions": "cited from earlier work", "units": {"water solubility": "ng/mL"}}
{"compound": "2,3,7,8-tetrachloro-dibenzo-p-dioxin [2,3,7,8-TCDD]", "water solubility": 0.0193}
{"test_system": "aryl hydrocarbon receptor (AHR)", "assay": "not given", "conditions": "2,3,7,8-TCDD set to 1; cited from earlier work"}
{"compound": "Clc1c(Cl)c(Cl)c2c(c1Cl)Oc1c(Cl)c(Cl)c(Cl)c(Cl)c1O2", "note": "[OCDD]", "I-TEF": 0.001}
{"compound": "Clc1cc2c(c(Cl)c1Cl)Oc1c(Cl)c(Cl)c(Cl)c(Cl)c1O2", "note": "[1,2,3,4,6,7,8-HpCDD]", "I-TEF": 0.01}
{"compound": "Clc1cc2c(oc3cc(Cl)c(Cl)c(Cl)c32)c(Cl)c1Cl", "note": "[1,2,3,6,7,8-HxCDF]", "I-TEF": 0.1}
{"compound": "Clc1c(Cl)c(Cl)c2c(oc3c(Cl)c(Cl)c(Cl)c(Cl)c32)c1Cl", "note": "[OCDF]", "I-TEF": 0.001}
{"compound": "Clc1cc2oc3cc(Cl)c(Cl)cc3c2cc1Cl", "note": "[2,3,7,8-TCDF]", "I-TEF": 0.1}
{"compound": "Clc1cc2oc3cc(Cl)c(Cl)c(Cl)c3c2cc1Cl", "note": "[1,2,3,7,8-PeCDF]", "I-TEF": 0.05}
{"compound": "Clc1cc2c(cc1Cl)Oc1c(Cl)c(Cl)c(Cl)c(Cl)c1O2", "note": "[1,2,3,4,7,8-HxCDD]", "I-TEF": 0.1}
{"compound": "Clc1cc2c(oc3c(Cl)c(Cl)c(Cl)c(Cl)c32)c(Cl)c1Cl", "note": "[1,2,3,4,6,7,8-HpCDF]", "I-TEF": 0.01}
{"compound": "Clc1cc2oc3c(Cl)c(Cl)c(Cl)c(Cl)c3c2cc1Cl", "note": "[1,2,3,4,7,8-HxCDF]", "I-TEF": 0.1}
{"compound": "Clc1cc2c(c(Cl)c1Cl)Oc1c(cc(Cl)c(Cl)c1Cl)O2", "note": "[1,2,3,7,8,9-HxCDD]", "I-TEF": 0.1}
{"compound": "Clc1cc2c(c(Cl)c1Cl)Oc1cc(Cl)c(Cl)c(Cl)c1O2", "note": "[1,2,3,6,7,8-HxCDD]", "I-TEF": 0.1}
{"compound": "Clc1cc2oc3cc(Cl)c(Cl)c(Cl)c3c2c(Cl)c1Cl", "note": "[1,2,3,7,8,9-HxCDF]", "I-TEF": 0.1}
{"compound": "Clc1cc2c(cc1Cl)Oc1cc(Cl)c(Cl)cc1O2", "note": "[2,3,7,8-TCDD, 2,3,7,8-tetrachloro-dibenzo-p-dioxin]", "I-TEF": 1}
{"compound": "Clc1cc2oc3c(Cl)c(Cl)c(Cl)c(Cl)c3c2c(Cl)c1Cl", "note": "[1,2,3,4,7,8,9-HpCDF]", "I-TEF": 0.01}
{"compound": "Clc1cc2c(cc1Cl)Oc1c(cc(Cl)c(Cl)c1Cl)O2", "note": "[1,2,3,7,8-PeCDD]", "I-TEF": 0.5}
{"compound": "Clc1cc2c(oc3c(Cl)c(Cl)c(Cl)cc32)c(Cl)c1Cl", "note": "[2,3,4,6,7,8-HxCDF]", "I-TEF": 0.1}
